Experimental data taken from PubChem BioAssay AID1963984 (Molecular Pharmacology Branch, DTP, NCI, 2024).

System: 233499-124-R-J3-PDC spheroids with HUVEC/MSC, viability
Experiment: Anticancer human tumor 233499-124-R-J3-PDC patient-derived colon adenocarcinoma cell line growth inhibition [PI3K]
Settings: for viability, T/C: stronger effect = lower value
In short: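 Stroma-containing spheroids: tumor line, pooled-donor HUVEC, hMSC. Treatments: targeted agents with PI3K inhibitors. Dosing: clinically relevant, half-log spacing, 10 microM ceiling without known Cmax. Read-out: cell viability.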

[1] = curve of first compound, second compound 0.0316 µM
[2] = curve of first compound, second compound 0.1 µM
[3] = curve of first compound, second compound 0.316 µM
[4] = curve of first compound, second compound 1 µM
[5] = curve of first compound, second compound 3.16 µM
[6] = curve of first compound, second compound 10 µM
[7] = second compound 0.0316 µM, first compound 0.0316 µM
[8] = second compound 0.0316 µM, first compound 0.1 µM
[9] = second compound 0.1 µM, first compound 0.0316 µM
[10] = second compound 0.1 µM, first compound 0.1 µM
[11] = second compound 0.316 µM, first compound 0.0316 µM
[12] = second compound 0.316 µM, first compound 0.1 µM
[13] = second compound 1 µM, first compound 0.0316 µM
[14] = second compound 1 µM, first compound 0.1 µM
[15] = second compound 3.16 µM, first compound 0.0316 µM
[16] = second compound 3.16 µM, first compound 0.1 µM
[17] = second compound 10 µM, first compound 0.0316 µM
[18] = second compound 10 µM, first compound 0.1 µM
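Further: spheroids exposed to agents for seven days before readout.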
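Wherever viability, T/C is given: percent viability relative to DMSO vehicle control taken as 100%.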

`CC(C)n1nc(-c2ccc3oc(N)nc3c2)c2c(N)ncnc21` + CC(Nc1ncnc2nc[nH]c12)c1cc2cccc(Cl)c2c(=O)n1-c1ccccc1 was tested, and the IC50 [1] was 0.0811 µM, the IC50 [2] was 0.0893 µM and the IC50 [3] was greater than 0.1 µM. The IC50 [4] was 0.083 µM, the IC50 [5] was greater than 0.1 µM and the IC50 [6] was 0.0909 µM. The viability, T/C (second compound 0.0316 µM, first compound 0.000316 µM) was 108%, the viability, T/C (second compound 0.0316 µM, first compound 0.001 µM) was 90.8% and the viability, T/C (second compound 0.0316 µM, first compound 0.00316 µM) was 104%. The viability, T/C (second compound 0.0316 µM, first compound 0.01 µM) was 79.4%, the viability, T/C [7] was 73.2% and the viability, T/C [8] was 44.5%. For the same molecule, the viability, T/C (second compound 0.1 µM, first compound 0.000316 µM) was 96.3%, the viability, T/C (second compound 0.1 µM, first compound 0.001 µM) was 85.1% and the viability, T/C (second compound 0.1 µM, first compound 0.00316 µM) was 97.8%. The viability, T/C (second compound 0.1 µM, first compound 0.01 µM) was 79.3%, the viability, T/C [9] was 84.2% and the viability, T/C [10] was 45.9%. It also gave a viability, T/C (second compound 0.316 µM, first compound 0.000316 µM) of 93.2%, a viability, T/C (second compound 0.316 µM, first compound 0.001 µM) of 82.6% and a viability, T/C (second compound 0.316 µM, first compound 0.00316 µM) of 83.3%. It also gave a viability, T/C (second compound 0.316 µM, first compound 0.01 µM) of 95.9%, a viability, T/C [11] of 75.2% and a viability, T/C [12] of 81.7%. It also gave a viability, T/C (second compound 1 µM, first compound 0.000316 µM) of 88.5%, a viability, T/C (second compound 1 µM, first compound 0.001 µM) of 82.2% and a viability, T/C (second compound 1 µM, first compound 0.00316 µM) of 104%. For the same molecule, the viability, T/C (second compound 1 µM, first compound 0.01 µM) was 93%, the viability, T/C [13] was 83.2% and the viability, T/C [14] was 43.3%. The viability, T/C (second compound 3.16 µM, first compound 0.000316 µM) was 83.4%, the viability, T/C (second compound 3.16 µM, first compound 0.001 µM) was 89.5% and the viability, T/C (second compound 3.16 µM, first compound 0.00316 µM) was 107%. It also gave a viability, T/C (second compound 3.16 µM, first compound 0.01 µM) of 67.7%, a viability, T/C [15] of 74.3% and a viability, T/C [16] of 64.8%. For the same molecule, the viability, T/C (second compound 10 µM, first compound 0.000316 µM) was 82.4%, the viability, T/C (second compound 10 µM, first compound 0.001 µM) was 96.2% and the viability, T/C (second compound 10 µM, first compound 0.00316 µM) was 88.3%. It also gave a viability, T/C (second compound 10 µM, first compound 0.01 µM) of 79.7%, a viability, T/C [17] of 78.8% and a viability, T/C [18] of 47.2%.

In the case of `CCCS(=O)(=O)Nc1ccc(F)c(C(=O)c2c[nH]c3ncc(-c4ccc(Cl)cc4)cc23)c1F`, the viability, T/C (compound 0.1 µM) is reported as 97.4% [middle of 4 runs], the viability, T/C (compound 0.316 µM) is reported as 97.2% [middle of 4 runs] and the viability, T/C (compound 1 µM) is reported as 100% [middle of 4 runs]. The viability, T/C (compound 10 µM) was 2.53% [middle of 4 runs] and the IC50 (curve of compound) was 5.22 µM [middle of 4 runs].

With `Cc1nc(NC(=O)N2CCCC2C(N)=O)sc1-c1ccnc(C(C)(C)C(F)(F)F)c1` (stereo unspecified) the viability, T/C (compound 0.0316 µM) was 79.1% [middle of 7 runs] and the viability, T/C (compound 0.1 µM) was 88.6% [middle of 8 runs].

Molecule `Cn1ncc(Cl)c1-c1cc(C(=O)NC(CN)Cc2cccc(F)c2)sc1Cl` (stereo unspecified) + CC(Nc1ncnc2nc[nH]c12)c1cc2cccc(Cl)c2c(=O)n1-c1ccccc1 has an IC50 [1] of 3.2 µM, an IC50 [2] of 4.73 µM and an IC50 [3] of 3.13 µM. It also gave an IC50 [4] of 4.11 µM, an IC50 [5] of 5.24 µM and an IC50 [6] of 5.3 µM. It also gave a viability, T/C [7] of 70.5%, a viability, T/C [8] of 105% and a viability, T/C (second compound 0.0316 µM, first compound 0.316 µM) of 60.3%. The viability, T/C (second compound 0.0316 µM, first compound 1 µM) was 91.5%, the viability, T/C (second compound 0.0316 µM, first compound 3.16 µM) was 50.2% and the viability, T/C (second compound 0.0316 µM, first compound 10 µM) was 26.3%. For the same molecule, the viability, T/C [9] was 86.4%, the viability, T/C [10] was 108% and the viability, T/C (second compound 0.1 µM, first compound 0.316 µM) was 94.2%. It also gave a viability, T/C (second compound 0.1 µM, first compound 1 µM) of 58.2%, a viability, T/C (second compound 0.1 µM, first compound 3.16 µM) of 75.7% and a viability, T/C (second compound 0.1 µM, first compound 10 µM) of 24.7%. It also gave a viability, T/C [11] of 115%, a viability, T/C [12] of 107% and a viability, T/C (second compound 0.316 µM, first compound 0.316 µM) of 70.6%. It also gave a viability, T/C (second compound 0.316 µM, first compound 1 µM) of 62.7%, a viability, T/C (second compound 0.316 µM, first compound 3.16 µM) of 63.6% and a viability, T/C (second compound 0.316 µM, first compound 10 µM) of 28.7%. The viability, T/C [13] was 94.8%, the viability, T/C [14] was 90.9% and the viability, T/C (second compound 1 µM, first compound 0.316 µM) was 86.1%. The viability, T/C (second compound 1 µM, first compound 1 µM) was 73.5%, the viability, T/C (second compound 1 µM, first compound 3.16 µM) was 59.6% and the viability, T/C (second compound 1 µM, first compound 10 µM) was 24.6%. It also gave a viability, T/C [15] of 97%, a viability, T/C [16] of 98.6% and a viability, T/C (second compound 3.16 µM, first compound 0.316 µM) of 79.1%. For the same molecule, the viability, T/C (second compound 3.16 µM, first compound 1 µM) was 106%, the viability, T/C (second compound 3.16 µM, first compound 3.16 µM) was 64.5% and the viability, T/C (second compound 3.16 µM, first compound 10 µM) was 31.5%. The viability, T/C [17] was 94.8%, the viability, T/C [18] was 92% and the viability, T/C (second compound 10 µM, first compound 0.316 µM) was 108%. For the same molecule, the viability, T/C (second compound 10 µM, first compound 1 µM) was 65.2%, the viability, T/C (second compound 10 µM, first compound 3.16 µM) was 69.6% and the viability, T/C (second compound 10 µM, first compound 10 µM) was 32.4%.
